Reference: US20080194482A1, “Selective Apac2 Receptor Peptide Agonists” (priority 2005, published 2008)
Like-named read-outs stand apart in the source and are kept apart here. Square brackets hold non-standard residues; d marks the D form. Ends that are not written are not given here. Peptide text beside a SMILES is read from it. * marks the point of attachment. hArg = N=C(N)NCCCC[C@H](N)C(=O)O; Orn = NCCC[C@H](N)C(=O)O; Hexanoyl = CCCCCC(=O)*; Aib = CC(C)(N)C(=O)O

How the values were obtained:
[1] = Rat serum stability (activity remaining, CHO-VPAC2 DiscoveRx read-out); assay type: in vitro ADME
Experimental: The rat serum is stored at 4° C. until use and is used within two weeks. […] The aliquot is stored with aprotinin at 4° C. The aliquot is stored without aprotinin at 37° C. The aliquots are incubated overnight. […] The plate(s) are washed with cells twice in incubation buffer. The plates are allowed to hold 50 μL incubation media per well for 15 minutes. 50 μL solution per well is transferred to the cells from the plate prepared with 11 serial 5× dilutions of peptide for the 4° C. and 37° C. aliquot for each peptide studied, using the maximal concentrations that are indicated by the primary screen, in duplicate. This step dilutes the peptide concentration by a factor of two. The cells are incubated at room temperature for 30 minutes. […] The cells are incubated on the shaker (300 rpm) for 1 hour. Normal procedure with the DiscoveRx kit is followed. cAMP standards are included in column 12. EC50 values are determined from the cAMP assay data.

human VPAC1 = target: T1, human VPAC1 (Homo sapiens, UniProt P32241); assay: Filter binding assay, 125I-labeled VIP tracer, VPAC1 membranes; conditions: read-out: Human VPAC1 Receptor Binding (IC50; nM)
T1 construct: expressed in transfected cells
T1 sequence (P32241 31-457): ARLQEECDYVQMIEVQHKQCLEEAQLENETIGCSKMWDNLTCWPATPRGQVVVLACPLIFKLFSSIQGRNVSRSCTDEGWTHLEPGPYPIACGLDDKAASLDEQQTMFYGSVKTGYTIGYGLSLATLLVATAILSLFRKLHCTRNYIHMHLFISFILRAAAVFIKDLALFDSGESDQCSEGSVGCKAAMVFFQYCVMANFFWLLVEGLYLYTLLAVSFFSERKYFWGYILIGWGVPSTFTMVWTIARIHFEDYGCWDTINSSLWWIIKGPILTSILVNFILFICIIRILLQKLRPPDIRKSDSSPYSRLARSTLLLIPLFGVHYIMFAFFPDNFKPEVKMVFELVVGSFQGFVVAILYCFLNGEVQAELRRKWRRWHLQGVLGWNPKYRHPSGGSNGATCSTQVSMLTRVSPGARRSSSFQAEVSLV
Experimental: (§1) For this assay, the solutions and equipment include:
(§2) Presoak solution: 0.5% Polyethyleneamine in Aqua dest
(§3) Buffer for flushing filter plates: 25 mM HEPES pH 7.4
(§4) Blocking buffer: 25 mM HEPES pH 7.4; 0.2% protease free BSA
(§5) Assay buffer: 25 mM HEPES pH 7.4; 0.5% protease free BSA
(§6) Dilution and assay plate: PS-Microplate, U form
(§7) Filtration Plate: Multiscreen FB Opaque Plate; 1.0 μM Type B Glasfiber filter
(§8) In order to prepare the filter plates, the presoak solution is aspirated by vacuum filtration. The plates are flushed twice with 200 μL flush buffer. 200 μL blocking buffer is added to the filter plate. The filter plate is then incubated with 200 μL presoak solution for 1 hour at room temperature.
(§9) The assay plate is filled with 25 μL assay buffer, 25 μL membranes (2.5 μg) suspended in assay buffer, 25 μL compound (agonist) in assay buffer, and 25 μL tracer (about 40000 cpm) in assay buffer. The filled plate is incubated for 1 hour with shaking.
(§10) The transfer from assay plate to filter plate is conducted. The blocking buffer is aspirated by vacuum filtration and washed two times with flush buffer. 90 μL is transferred from the assay plate to the filter plate. The 90 μL transferred from assay plate is aspirated and washed three times with 200 μL flush buffer. The plastic support is removed. It is dried for 1 hour at 60° C. 30 μL Microscint is added. The count is performed.

human PAC1 = target: T2, human PAC1 (Homo sapiens, UniProt P41586); assay: Filter binding assay, 125I-labeled PACAP-27 tracer, PAC1 membranes; conditions: read-out: Human PAC1 Receptor Binding (IC50; nM)
T2 construct: expressed in transfected cells
T2 sequence (P41586 21-468): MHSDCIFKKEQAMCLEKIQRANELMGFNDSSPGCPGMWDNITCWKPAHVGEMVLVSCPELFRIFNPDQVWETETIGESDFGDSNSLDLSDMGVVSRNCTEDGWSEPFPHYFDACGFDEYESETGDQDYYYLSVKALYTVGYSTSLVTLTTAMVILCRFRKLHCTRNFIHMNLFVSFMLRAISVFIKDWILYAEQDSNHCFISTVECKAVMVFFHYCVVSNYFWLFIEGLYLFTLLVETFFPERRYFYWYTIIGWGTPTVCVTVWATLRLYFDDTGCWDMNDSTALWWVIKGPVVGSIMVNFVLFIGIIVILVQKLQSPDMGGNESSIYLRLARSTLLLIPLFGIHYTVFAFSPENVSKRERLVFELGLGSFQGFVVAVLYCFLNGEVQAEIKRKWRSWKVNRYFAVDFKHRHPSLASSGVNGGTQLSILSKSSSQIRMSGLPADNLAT
Experimental: as §1, §2, §3, §4, §5, §6, §7, §8, §9, §10

Molecule | Rat Serum Stability (estimated purity in % after overnight incub.) [1] | IC50 (human VPAC1) | IC50 (human PAC1) | Rat Serum Stability (estimated purity in % after overnight incub.) ([1]; 10 μM peptide in rat serum, overnight at 37° C. vs 4° C. with aprotinin, estimated by EC50, 4C/EC50, 37C)
CCCCCC(=O)N[C@@H](Cc1c[nH]cn1)C(=O)N[C@@H](CO)C(=O)N[C@@H](CCC(=O)O)C(=O)N[C@@H](C)C(=O)N[C@H](C(=O)N[C@@H](Cc1ccccc1)C(=O)N[C@H](C(=O)N[C@@H](CCC(=O)O)C(=O)N[C@@H](CC(N)=O)C(=O)N[C@@H](Cc1ccc(O)cc1)C(=O)N[C@H](C(=O)N[C@@H](CCCN)C(=O)N[C@@H](CC(C)C)C(=O)N[C@@H](CCCNC(=N)N)C(=O)NC(C)(C)C(=O)N[C@@H](CCC(N)=O)C(=O)N[C@H](C(=O)N[C@@H](C)C(=O)N[C@@H](C)C(=O)NC(C)(C)C(=O)N[C@@H](CCCCN)C(=O)N[C@@H](Cc1ccc(O)cc1)C(=O)N[C@@H](CC(C)C)C(=O)N[C@@H](CCC(N)=O)C(=O)N[C@@H](CO)C(=O)N[C@H](C(=O)N[C@@H](CCCN)C(=O)N[C@@H](CC(N)=O)C(=O)N[C@@H](CCCN)C(=O)NCC(=O)NCC(=O)N1CCC[C@H]1C(=O)N[C@@H](CO)C(=O)N[C@@H](CO)C(=O)NCC(=O)N[C@@H](C)C(=O)N1CCC[C@H]1C(=O)N1CCC[C@H]1C(=O)N1CCC[C@H]1C(=O)N[C@@H](CO)C(=O)O)[C@@H](C)CC)C(C)C)[C@@H](C)O)[C@@H](C)O)C(C)C [Agonist P362] (Hexanoyl-HSEAVFTENYT[Orn]LR[Aib]QVAA[Aib]KYLQSI[Orn]N[Orn]GGPSSGAPPPS-OH; C-terminus assumed) | 82.77% | > 3000 nM | > 25000 nM | 
CCCCCC(=O)N[C@@H](Cc1c[nH]cn1)C(=O)N[C@@H](CO)C(=O)N[C@@H](CC(=O)O)C(=O)N[C@@H](C)C(=O)N[C@H](C(=O)N[C@@H](Cc1ccccc1)C(=O)N[C@H](C(=O)N[C@@H](CC(=O)O)C(=O)N[C@@H](CC(N)=O)C(=O)N[C@@H](Cc1ccc(O)cc1)C(=O)N[C@H](C(=O)N[C@@H](Cc1ccccc1)C(=O)N[C@@H](CC(C)C)C(=O)N[C@@H](CCCNC(=N)N)C(=O)NC(C)(C)C(=O)N[C@@H](CCC(N)=O)C(=O)N[C@H](C(=O)N[C@@H](C)C(=O)N[C@@H](C)C(=O)NC(C)(C)C(=O)N[C@@H](CCCCN)C(=O)N[C@@H](Cc1ccc(O)cc1)C(=O)N[C@@H](CC(C)C)C(=O)N[C@@H](CCC(N)=O)C(=O)N[C@@H](CO)C(=O)N[C@H](C(=O)N[C@@H](CCCN)C(=O)N[C@@H](CC(N)=O)C(=O)N[C@@H](CCCN)C(=O)NCC(=O)NCC(=O)N1CCC[C@H]1C(=O)N[C@@H](CO)C(=O)N[C@@H](CO)C(=O)NCC(=O)N[C@@H](C)C(=O)N1CCC[C@H]1C(=O)N1CCC[C@H]1C(=O)N1CCC[C@H]1C(=O)N[C@@H](CO)C(=O)O)[C@@H](C)CC)C(C)C)[C@@H](C)O)[C@@H](C)O)C(C)C [Agonist P369] (Hexanoyl-HSDAVFTDNYTFLR[Aib]QVAA[Aib]KYLQSI[Orn]N[Orn]GGPSSGAPPPS-OH; C-terminus assumed) | 133.76% | > 3000 nM | > 25000 nM | 
CCCCCC(=O)N[C@@H](Cc1c[nH]cn1)C(=O)N[C@@H](CO)C(=O)N[C@@H](CC(=O)O)C(=O)N[C@@H](C)C(=O)N[C@H](C(=O)N[C@@H](Cc1ccccc1)C(=O)N[C@H](C(=O)N[C@@H](CC(=O)O)C(=O)N[C@@H](CC(N)=O)C(=O)N[C@@H](Cc1ccc(O)cc1)C(=O)N[C@H](C(=O)N[C@@H](CCCN)C(=O)N[C@@H](CC(C)C)C(=O)N[C@@H](CCCNC(=N)N)C(=O)NC(C)(C)C(=O)N[C@@H](CCC(N)=O)C(=O)N[C@H](C(=O)N[C@@H](C)C(=O)N[C@@H](CO)C(=O)NC(C)(C)C(=O)N[C@@H](CCCCN)C(=O)N[C@@H](Cc1ccc(O)cc1)C(=O)N[C@@H](CC(C)C)C(=O)N[C@@H](CCC(N)=O)C(=O)N[C@@H](CO)C(=O)N[C@H](C(=O)N[C@@H](CCCN)C(=O)N[C@@H](CC(N)=O)C(=O)N[C@@H](CCCN)C(=O)NCC(=O)NCC(=O)N1CCC[C@H]1C(=O)N[C@@H](CO)C(=O)N[C@@H](CO)C(=O)NCC(=O)N[C@@H](C)C(=O)N1CCC[C@H]1C(=O)N1CCC[C@H]1C(=O)N1CCC[C@H]1C(=O)N[C@@H](CO)C(=O)O)[C@@H](C)CC)C(C)C)[C@@H](C)O)[C@@H](C)O)C(C)C [Agonist P387] (Hexanoyl-HSDAVFTDNYT[Orn]LR[Aib]QVAS[Aib]KYLQSI[Orn]N[Orn]GGPSSGAPPPS-OH; C-terminus assumed) | 74.99% | > 3000 nM | > 25000 nM | 
Hexanoyl-HSDAVFTDNYT[hArg]LR[Aib]QVAA[Aib]KYLQSIKNKRYGGPSSGAPPPS [Agonist P343] |  | > 3000 nM | > 25000 nM | 34.46%
CCCCCC(=O)N[C@@H](Cc1c[nH]cn1)C(=O)N[C@@H](CO)C(=O)N[C@@H](CC(=O)O)C(=O)N[C@@H](C)C(=O)N[C@H](C(=O)N[C@@H](Cc1ccccc1)C(=O)N[C@H](C(=O)N[C@@H](CCC(=O)O)C(=O)N[C@@H](CCC(N)=O)C(=O)N[C@@H](Cc1ccc(OC)cc1)C(=O)N[C@H](C(=O)N[C@@H](CCCN)C(=O)N[C@@H](CC(C)C)C(=O)N[C@@H](CCCNC(=N)N)C(=O)NC(C)(C)C(=O)N[C@@H](CCC(N)=O)C(=O)N[C@@H](CC(C)C)C(=O)N[C@@H](C)C(=O)N[C@@H](C)C(=O)NC(C)(C)C(=O)N[C@@H](CCCN)C(=O)N[C@@H](Cc1ccc(OC)cc1)C(=O)N[C@@H](CC(C)C)C(=O)N[C@@H](CCC(N)=O)C(=O)N[C@@H](CO)C(=O)N[C@H](C(=O)N[C@@H](CCCN)C(=O)N[C@@H](CCCN)C(=O)NCC(=O)NCC(=O)N1CCC[C@H]1C(=O)N[C@@H](CO)C(=O)N[C@@H](CO)C(=O)NCC(=O)N[C@@H](C)C(=O)N1CCC[C@H]1C(=O)N1CCC[C@H]1C(=O)N1CCC[C@H]1C(=O)N[C@@H](CO)C(=O)O)[C@@H](C)CC)[C@@H](C)O)[C@@H](C)O)C(C)C [Agonist P418] (Hexanoyl-HSDAVFTEQY(Me)T[Orn]LR[Aib]QLAA[Aib][Orn]Y(Me)LQSI[Orn][Orn]GGPSSGAPPPS-OH; C-terminus assumed) | 99.96% | > 3000 nM | > 25000 nM | 
CCCCCC(=O)N[C@@H](Cc1c[nH]cn1)C(=O)N[C@@H](CO)C(=O)N[C@@H](CC(=O)O)C(=O)N[C@@H](C)C(=O)N[C@H](C(=O)N[C@@H](Cc1ccccc1)C(=O)N[C@H](C(=O)N[C@@H](CC(=O)O)C(=O)N[C@@H](CC(N)=O)C(=O)N[C@@H](Cc1ccc(O)cc1)C(=O)N[C@H](C(=O)N[C@@H](CCCN)C(=O)N[C@@H](CC(C)C)C(=O)N[C@@H](CCCNC(=N)N)C(=O)NC(C)(C)C(=O)N[C@@H](CCC(N)=O)C(=O)N[C@H](C(=O)N[C@@H](C)C(=O)N[C@@H](C)C(=O)NC(C)(C)C(=O)N[C@@H](CCCCN)C(=O)N[C@@H](Cc1ccc(O)cc1)C(=O)N[C@@H](CC(C)C)C(=O)N[C@@H](CCC(N)=O)C(=O)N[C@@H](CO)C(=O)N[C@@H](CO)C(=O)N[C@@H](CCCN)C(=O)N[C@@H](CC(N)=O)C(=O)N[C@@H](CCCN)C(=O)NCC(=O)NCC(=O)N1CCC[C@H]1C(=O)N[C@@H](CO)C(=O)N[C@@H](CO)C(=O)NCC(=O)N[C@@H](C)C(=O)N1CCC[C@H]1C(=O)N1CCC[C@H]1C(=O)N1CCC[C@H]1C(=O)N[C@@H](CO)C(=O)O)C(C)C)[C@@H](C)O)[C@@H](C)O)C(C)C [Agonist P382] (Hexanoyl-HSDAVFTDNYT[Orn]LR[Aib]QVAA[Aib]KYLQSS[Orn]N[Orn]GGPSSGAPPPS-OH; C-terminus assumed) | 92.34% | > 3000 nM | > 25000 nM | 
